Measured values reported in patent publication US20250249056A1, “CANCER THERAPIES COMPRISING A NUCLEAR EXPORT INHIBITOR AND AN ONCOLYTIC VIRUS” (priority 2022, published 2025).

Assays:
MYXV [1] = test: Viral replication assay: progeny virus titration on permissive rabbit RK13 cells; assay type: cell-based, myxoma virus; conditions: PANC-1 and HT29 cells; LMB 0.001-0.1 μM
Experimental: Viral titers in different human cancer cell lines were determined using a viral replication assay. Cells were seeded in 24-well plates (2×10^5 cells/well). The next day, the cells were treated with different concentrations of leptomycin B (LMB) or selinexor diluted in DMEM for 1 hour. MYXV was added to the cells and incubated for one hour at 37° C. After 1 hour, the unbound viruses were washed away using DMEM, and DMEM with LMB or selinexor was added to the cells. Cells were harvested in DMEM without LMB or selinexor at the indicated time points. After harvesting the cells, they were stored at −80° C. until processing. Samples were subjected to three freeze/thaw cycles and one-minute sonification to lyse cells and release the viral particles. Afterwards, different dilutions were prepared in DMEM and plated on rabbit RK13 and foci were counted after 48 hours using a fluorescent microscope. All assays and dilutions were performed in triplicate.

DHX9 = test: Immunofluorescence staining of DHX9 localization / antiviral granules in MYXV-infected A549 cells; assay type: cell-based, human
Experimental: Immunofluorescence: Cells (5×10^5-1×10^6/dish) were seeded onto glass bottom 35 mm petri dishes overnight. Depending on the experiment, the next day, cells were transfected with siRNA for 48 hours or treated with a nuclear export inhibitor, MYXV, or a combination of both. At different time points after treatment, the cells were washed with PBS three times, fixed with 2% paraformaldehyde in PBS for 12 minutes at room temperature, washed with PBS three times, and permeabilized in 0.1% Triton™ X-100 in PBS for 90 seconds at room temperature. Fixed cells were washed with PBS three times and then blocked with 3% BSA in PBS for 30 minutes at 37° C., incubated with primary antibody (1:300 dilution) for 30 minutes at 37° C., washed with PBS six times, and incubated with secondary antibodies conjugated to different Alexa Fluor. After washing again with PBS six times, samples were mounted on glass slides with Vecta Shield (Vectorlabs) containing DAPI (4′,6′-diamidino-2-phenylindole) to stain DNA in the nuclei […]. Images were captured using a fluorescence microscope (Leica).

MYXV [2] = test: MYXV reporter gene expression (GFP/TdTomato) and foci by fluorescence microscopy in human cancer cell lines; conditions: PANC-1 and HT29 cells; pretreatment with LMB 0.001-0.1 μM; vMyx-GFP-TdTomato

CCC(=C/[C@H](C)C/C=C/C(C)=C/[C@@H](C)C(=O)[C@@H](C)[C@H](O)[C@@H](C)C/C(C)=C/C(=O)O)/C=C/[C@@H]1OC(=O)C=C[C@@H]1C [LMB, leptomycin B]
viral production measured by titration assay (MYXV [1]): significantly enhanced viral production
formation of DHX9 antiviral granules in the cytoplasm (DHX9; A549 cells infected with vMyx-GFP, 24 h): blocked the formation of antiviral granules
cells in which DHX9 remained in the nucleus (DHX9; A549 cells, LMB 1 h then vMyx-GFP MOI=1, 24 h): > 80%
viral gene expression (early/late GFP and late TdTomato reporter protein expression) (MYXV [2]): enhanced viral gene expression
